For this assay, the target named is T1, Glutathionylspermidine synthase (Crithidia fasciculata, UniProt P90518).
T1 sequence (P90518 whole entry): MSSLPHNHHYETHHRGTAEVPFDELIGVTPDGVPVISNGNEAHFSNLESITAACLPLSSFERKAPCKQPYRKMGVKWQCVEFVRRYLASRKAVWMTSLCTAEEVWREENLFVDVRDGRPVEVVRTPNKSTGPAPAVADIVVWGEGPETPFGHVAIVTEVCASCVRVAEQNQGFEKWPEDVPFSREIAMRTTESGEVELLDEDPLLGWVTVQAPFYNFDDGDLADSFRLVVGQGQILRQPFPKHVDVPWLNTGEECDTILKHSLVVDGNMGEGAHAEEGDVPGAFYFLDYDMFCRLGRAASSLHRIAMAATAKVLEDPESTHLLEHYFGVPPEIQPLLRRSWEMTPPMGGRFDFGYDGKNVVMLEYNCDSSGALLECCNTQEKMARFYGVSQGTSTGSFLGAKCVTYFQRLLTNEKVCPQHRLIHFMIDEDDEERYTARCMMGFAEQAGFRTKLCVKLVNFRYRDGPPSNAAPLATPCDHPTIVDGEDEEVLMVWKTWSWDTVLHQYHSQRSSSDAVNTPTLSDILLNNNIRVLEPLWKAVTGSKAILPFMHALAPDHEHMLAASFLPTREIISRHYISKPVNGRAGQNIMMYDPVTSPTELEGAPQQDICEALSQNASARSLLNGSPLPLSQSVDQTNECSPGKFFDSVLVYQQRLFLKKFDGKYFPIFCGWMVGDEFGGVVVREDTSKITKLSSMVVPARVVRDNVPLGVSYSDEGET
The assay can be described thus: Inhibitory activity against amidase free Glutathionylspermidine Synthetase mutant (C79A).

Where a SMILES comes first, the peptide text is derived from it.

This is an account of results in BindingDB's records for doi:10.1016/s0960-894x(02)00489-4 (University of Antwerp (Uia), 2002).

A word on the IC50: it is the point on the concentration scale where inhibition reaches its midpoint. A high value points to lower potency.

`CC(C)C[C@H](NC(=O)CC[C@H](N)C(=O)O)C(=O)NCC(N)=O` [2-Amino-4-[1-(carbamoylmethyl-carbamoyl)-3-methyl-butylcarbamoyl]-butyric acid] (HELM PEPTIDE1{[gGlu].L.G.[am]}$$$$V2.0) registered an IC50 above 2000 nM.
